target: T1, PHF8 (Homo sapiens, UniProt Q9UPP1); assay: PHF8 in vitro enzyme inhibition assay (TR-FRET); type: biochemical; details: Table 3; 3 nM PHF8, H3K9me1-biotin labeled peptide
T1 construct: purchased Active Motif 31435
Excerpt: This assay determines the ability of a test compound to inhibit FBXL11, FBXL10, and PHF8 demethylase activity. Baculovirus expressed FBXL11 (GenBank Accession #NM_012308, AA1-1162) was purchased from BPS Bioscience (Cat#50102). Baculovirus expressed FBXL10 (GenBank Accession #NM_032590, AA 1-650) was purchased from BPS Bioscience (Cat #50120). Baculovirus expressed PHF8 (GenBank Accession NP_055922.1) was purchased from Active Motif (Cat#31435).
The ability of test compounds to inhibit the activity of PHF8 was determined in 384-well plate format under the following reaction conditions: 3 nM PHF8, 200 nM H3K9me1-biotin labeled peptide (Anaspec cat #64358), 0.5 µM alpha-ketoglutaric acid in assay buffer of 50 mM HEPES, pH7.3, 0.005% Brij35, 0.5 mM TCEP, 0.2 mg/ml BSA, 50 µM sodium L-ascorbate, and 5 µM ammonium iron(II) sulfate. Reaction product was determined quantitatively by TR-FRET after the addition of detection reagent Phycolink Streptavidin-allophycocyanin (Prozyme) and Europium-anti-unmodified-histone H3 lysine 9/lysine27 (H3K9/K27) antibody (PerkinElmer) in the presence of 5 mM EDTA in LANCE detection buffer (PerkinElmer) at a final concentration of 25 nM and 0.5 nM, respectively.
The assay reaction was initiated by the following: 2 µl of the mixture of 600 nM H3K9me1-biotin labeled peptide and 1.5 µM alpha-ketoglutaric acid with 2 µl of 11-point serial diluted inhibitor in 3% DMSO were added to each well of the plate, followed by the addition of 2 µl of 9 nM PHF8 to initiate the reaction. The reaction mixture was incubated at room temperature for 15 minutes, and terminated by the addition of 6 µl of 5 mM EDTA in LANCE detection buffer containing 50 nM Phycolink Streptavidin-allophycocyanin and 1 nM Europium-anti-unmodified H3K9/K27 antibody. Plates were read by EnVision Multilabel Reader in TR-FRET mode (excitation at 320 nm, emission at 615 nm and 665 nm) after 1 hour incubation at room temperature. A ratio was calculated (665/615) for each well and fitted to determine inhibition constant (IC50).

T1 sequence (Q9UPP1 37-1060): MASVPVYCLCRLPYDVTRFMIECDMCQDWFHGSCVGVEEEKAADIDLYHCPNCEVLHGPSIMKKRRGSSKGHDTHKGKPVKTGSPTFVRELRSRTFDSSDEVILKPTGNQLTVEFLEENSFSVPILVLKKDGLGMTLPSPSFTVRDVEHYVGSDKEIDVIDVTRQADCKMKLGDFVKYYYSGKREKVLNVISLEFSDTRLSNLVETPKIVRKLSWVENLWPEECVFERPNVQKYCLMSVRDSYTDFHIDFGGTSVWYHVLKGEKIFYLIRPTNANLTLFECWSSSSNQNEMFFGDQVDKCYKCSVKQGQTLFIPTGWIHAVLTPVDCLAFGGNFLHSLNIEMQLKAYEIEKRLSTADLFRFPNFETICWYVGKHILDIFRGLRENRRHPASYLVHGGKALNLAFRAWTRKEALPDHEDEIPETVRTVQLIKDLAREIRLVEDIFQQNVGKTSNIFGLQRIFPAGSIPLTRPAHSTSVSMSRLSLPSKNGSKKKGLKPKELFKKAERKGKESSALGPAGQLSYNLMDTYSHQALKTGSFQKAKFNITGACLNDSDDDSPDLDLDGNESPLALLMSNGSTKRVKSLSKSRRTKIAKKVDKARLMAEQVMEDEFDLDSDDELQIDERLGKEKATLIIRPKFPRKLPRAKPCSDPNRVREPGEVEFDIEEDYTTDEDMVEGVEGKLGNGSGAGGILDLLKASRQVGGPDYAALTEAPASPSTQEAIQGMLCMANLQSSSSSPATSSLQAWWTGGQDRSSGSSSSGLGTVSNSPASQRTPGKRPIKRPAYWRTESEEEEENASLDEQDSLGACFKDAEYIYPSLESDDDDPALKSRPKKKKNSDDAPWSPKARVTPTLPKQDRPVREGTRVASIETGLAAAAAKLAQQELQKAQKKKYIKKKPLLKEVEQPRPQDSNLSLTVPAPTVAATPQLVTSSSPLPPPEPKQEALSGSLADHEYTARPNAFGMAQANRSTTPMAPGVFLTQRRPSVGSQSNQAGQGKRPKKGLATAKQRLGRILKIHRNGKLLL

Row | IC50 | Compound
1 | 1000 to 10000 nM | Clc1cccc(Cn2cnc(-c3cc4[nH]nnc4cn3)c2)c1 [Example 46, 1-[(3-chlorophenyl)methyl]-4-{1H-[1,2,3]triazolo[4,5-c]pyridin-6-yl}-1H-imidazole]
2 | 1000 to 10000 nM | Clc1ccc(Cn2cnc(-c3cc4[nH]nnc4cn3)c2)cc1 [Example 47, 1-[(4-chlorophenyl)methyl]-4-{1H-[1,2,3]triazolo[4,5-c]pyridin-6-yl}-1H-imidazole]

Second part, the compound before the results:

Row | Compound | IC50
3 | c1ccc(Cn2cnc(-c3cc4[nH]nnc4cn3)c2)cc1 [Example 44, 1-benzyl-4-{1H-[1,2,3]triazolo[4,5-c]pyridin-6-yl}-1H-imidazole] | 100 to 1000 nM
4 | Clc1ccccc1-n1cnc(-c2cc3[nH]nnc3cn2)c1 [Example 50, 1-(2-chlorophenyl)-4-{1H-[1,2,3]triazolo[4,5-c]pyridin-6-yl}-1H-imidazole] | 1000 to 10000 nM
5 | Clc1cccc(-n2cnc(-c3cc4[nH]nnc4cn3)c2)c1 [Example 51, 1-(3-chlorophenyl)-4-{1H-[1,2,3]triazolo[4,5-c]pyridin-6-yl}-1H-imidazole] | 1000 to 10000 nM
6 | Clc1ccc(Cn2cnc(-c3cc4[nH]nnc4cn3)c2)cc1Cl [Example 48, 1-[(3,4-dichlorophenyl)methyl]-4-{1H-[1,2,3]triazolo[4,5-c]pyridin-6-yl}-1H-imidazole] | 1000 to 10000 nM
7 | Clc1ccccc1Cn1cnc(-c2cc3[nH]nnc3cn2)c1 [Example 45, 1-[(2-chlorophenyl)methyl]-4-{1H-[1,2,3]triazolo[4,5-c]pyridin-6-yl}-1H-imidazole] | 1000 to 10000 nM
8 | Clc1ccc(-n2cnc(-c3cc4[nH]nnc4cn3)c2)cc1 [Example 49, 1-(4-chlorophenyl)-4-{1H-[1,2,3]triazolo[4,5-c]pyridin-6-yl}-1H-imidazole] | 1000 to 10000 nM

From patent EP3436445B1, “HISTONE DEMETHYLASE INHIBITORS” (Celgene Quanticel Research, Inc., priority 2016, dated 2017)
